Data as given in patent US12607406B2, “Recombinant virus, composition comprising the same, and uses thereof” (ACADEMIA SINICA, priority 2016, dated 2026).

Tests used:
Assay type in all cases: biochemical
[1] = tested on: Influenza A virus A/WSN/33 (H1N1) neuraminidase (NA) on virus, variant 72-G, substitution at position 72, SEQ ID NO: 9
[2] = tested on: Influenza A virus A/WSN/33 (H1N1) neuraminidase (NA) variant 44-72-219-G, substitutions at positions 44, 72, and 219, SEQ ID NO: 11
[3] = tested on: Influenza A virus A/WSN/33 (H1N1) neuraminidase (NA) on virus, variant 44-72-G, substitutions at positions 44 and 72, SEQ ID NO: 10
[4] = tested on: Influenza A virus A/WSN/33 (H1N1) neuraminidase (NA) on virus, variant 44-72-219-G, substitutions at positions 44, 72, and 219, SEQ ID NO: 11
[5] = tested on: Influenza A virus A/WSN/33 (H1N1) neuraminidase (NA) variant 44-72-G, substitutions at positions 44 and 72, SEQ ID NO: 10
[6] = tested on: Influenza A virus A/WSN/33 (H1N1) neuraminidase (NA) on virus, variant 44-G, substitution at position 44, SEQ ID NO: 8
[7] = tested on: Influenza A virus A/WSN/33 (H1N1) neuraminidase (NA), all mutants (44-G, 72-G, 44-72-G, 44-72-219-G)
[8] = tested on: Influenza A virus A/WSN/33 (H1N1) neuraminidase (NA) variant 72-G, substitution at position 72, SEQ ID NO: 9
[9] = tested on: Influenza A virus A/WSN/33 (H1N1) neuraminidase (NA) variant 44-G, substitution at position 44, SEQ ID NO: 8

| SMILES | Km [1] | Kcat [2] | Km [2] | Vmax [2] | Km [3] | Km [4] | Kcat [5] | Km [5] | Vmax [5] | Km [6] | Km values of all mutants [7] | Kcat [8] | Km [8] | Vmax [8] | Kcat [9] | Km [9] | Vmax [9] | Km value increased [8] | Km value increased [9] |
| --- | --- | --- | --- | --- | --- | --- | --- | --- | --- | --- | --- | --- | --- | --- | --- | --- | --- | --- | --- |
| CC(=O)N[C@H]1[C@H]([C@H](O)[C@H](O)CO)O[C@@](Oc2ccc3c(C)cc(=O)oc3c2)(C(=O)O)C[C@@H]1O [4-Muα-Neu5Ac, 2-(4-methylumbelliferyl)-α-D-N-acetylneuraminic acid] | 485 µM | 105.8 s⁻¹ | 597 µM | 1.2 nM/s | 429 µM | 415 µM | 100.3 s⁻¹ | 588 µM | 1.15 nM/s | 508 µM | similar | 426.8 s⁻¹ | 591 µM | 4.45 nM/s | 468.5 s⁻¹ | 595 µM | 4.95 nM/s |  |  |
| CC(=O)N[C@H]1[C@H]([C@H](O)[C@H](O)CO)O[C@@](OC[C@H]2O[C@@H](O[C@H]3[C@H](O)[C@@H](NC(C)=O)C(O)O[C@@H]3CO)[C@H](O)[C@@H](O)[C@H]2O)(C(=O)O)C[C@@H]1O (stereo partly shown) [6SLN, 6′-sialyl-N-acetyllactosamine] | 540 µM | 20.7 s⁻¹ | 675 µM | 0.21 nM/s | 521 µM | 515 µM | 19.8 s⁻¹ | 679 µM | 0.24 nM/s | 525 µM | similar | 83.6 s⁻¹ | 688 µM | 0.85 nM/s | 90.6 s⁻¹ | 684 µM | 0.92 nM/s |  |  |
| CC(=O)N[C@H]1[C@H]([C@H](O)[C@H](O)CO)O[C@@](O[C@H]2[C@@H](O)[C@@H](CO)O[C@@H](O[C@H]3[C@H](O)[C@@H](NC(C)=O)C(O)O[C@@H]3CO)[C@@H]2O)(C(=O)O)C[C@@H]1O (stereo partly shown) [3SLN, 3′-sialyl-N-acetyllactosamine] | 268 µM | 139.1 s⁻¹ | 299 µM | 1.48 nM/s | 285 µM | 281 µM | 136.4 s⁻¹ | 296 µM | 1.46 nM/s | 274 µM |  | 364.4 s⁻¹ | 289 µM | 3.89 nM/s | 389.8 s⁻¹ | 295 µM | 4.09 nM/s | more than two-fold | more than two-fold |
